Measured values published in PubChem BioAssay (NCI).
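Briefly, cells in 96-well plates were exposed to five compound concentrations for 48 h, and endpoints were estimated by linear interpolation. Here, GI50 denotes the concentration required for 50% inhibition of growth. TGI is the concentration that stops growth completely.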

Columns and labels:
Experiment in all cases: NCI tumour cell line growth inhibition, 48 h
KM12 colon = test system: KM12 colon
T-47D breast = test system: T-47D breast
A549 NSCLC = test system: A549 NSCLC
UO-31 renal = test system: UO-31 renal
SF-295 CNS = test system: SF-295 CNS
U251 CNS = test system: U251 CNS
OVCAR-3 ovarian = test system: OVCAR-3 ovarian
SW-620 colon = test system: SW-620 colon
PC-3 prostate = test system: PC-3 prostate
HOP-62 NSCLC = test system: HOP-62 NSCLC
MOLT-4 leukemia = test system: MOLT-4 leukemia
NCI-H226 lung = test system: NCI-H226 lung
RPMI-8226 leukemia = test system: RPMI-8226 leukemia
ACHN renal = test system: ACHN renal
MDA-MB-231 breast = test system: MDA-MB-231 breast
HS 578T breast = test system: HS 578T breast
MDA-MB-435 = test system: MDA-MB-435
SN12C renal = test system: SN12C renal
M14 melanoma = test system: M14 melanoma
NCI-H460 lung = test system: NCI-H460 lung
UACC-257 melanoma = test system: UACC-257 melanoma
TK-10 renal = test system: TK-10 renal
COLO 205 colon = test system: COLO 205 colon
NCI-H23 lung = test system: NCI-H23 lung
SK-MEL-28 melanoma = test system: SK-MEL-28 melanoma
SF-268 CNS = test system: SF-268 CNS
IGROV1 ovarian = test system: IGROV1 ovarian
SNB-75 CNS = test system: SNB-75 CNS
HCC-2998 colon = test system: HCC-2998 colon

## CC1=C(C#N)C(/C=C(\Cl)c2ccc(F)cc2)C(C#N)=C(C)N1
KM12 colon
  TGI: > 100 µM
T-47D breast
  GI50: > 100 µM
  TGI: > 100 µM
A549 NSCLC
  GI50: > 100 µM
  TGI: > 100 µM
UO-31 renal
  GI50: > 100 µM
  TGI: > 100 µM
SF-295 CNS
  GI50: 53.7 µM
  TGI: > 100 µM
U251 CNS
  GI50: > 100 µM
  TGI: > 100 µM
OVCAR-3 ovarian
  GI50: > 100 µM
  TGI: > 100 µM
SW-620 colon
  GI50: > 100 µM
  TGI: > 100 µM
PC-3 prostate
  GI50: > 100 µM
  TGI: > 100 µM
HOP-62 NSCLC
  GI50: > 100 µM
  TGI: > 100 µM
MOLT-4 leukemia
  GI50: > 100 µM
  TGI: > 100 µM
NCI-H226 lung
  GI50: > 100 µM
  TGI: > 100 µM
RPMI-8226 leukemia
  GI50: 36.3 µM
  TGI: > 100 µM
ACHN renal
  GI50: > 100 µM
  TGI: > 100 µM
MDA-MB-231 breast
  GI50: 94.9 µM
  TGI: > 100 µM
HS 578T breast
  GI50: > 100 µM
  TGI: > 100 µM
MDA-MB-435
  GI50: > 100 µM
  TGI: > 100 µM
SN12C renal
  GI50: > 100 µM
  TGI: > 100 µM
M14 melanoma
  GI50: > 100 µM
  TGI: > 100 µM
NCI-H460 lung
  GI50: > 100 µM
  TGI: > 100 µM
UACC-257 melanoma
  GI50: > 100 µM
  TGI: > 100 µM
TK-10 renal
  GI50: > 100 µM
  TGI: > 100 µM
COLO 205 colon
  GI50: > 100 µM
  TGI: > 100 µM
NCI-H23 lung
  GI50: > 100 µM
  TGI: > 100 µM
SK-MEL-28 melanoma
  GI50: > 100 µM
  TGI: > 100 µM
SF-268 CNS
  GI50: > 100 µM
  TGI: > 100 µM
IGROV1 ovarian
  GI50: > 100 µM
  TGI: > 100 µM
SNB-75 CNS
  GI50: 86.3 µM
  TGI: > 100 µM
HCC-2998 colon
  GI50: > 100 µM
  TGI: > 100 µM
